The values that follow come from US9493444B2 (Merck Patent GmbH, priority 2012, dated 2016).

Bounds are passed on as bounds.

The subject of this test is Wnt pathway (TCF-dependent transcription in HEK293 luciferase reporter cell line with ER-DSH construct). The test can be described thus: Cellular assay for Wnt pathway activity (luciferase reporter). It counts as cell-based. The conditions noted are these: Homo sapiens; Wnt pathway inhibition, HEK293 luciferase reporter cells (ER-DSH, TCF promoter), 24 hours incubation, estrogen-induced. The procedure, abridged: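 Luminescent luciferase read-out after 24 h compound exposure at 1 nM to 30 μM, with TCF-driven transcription switched on by estrogen addition. IC50 values come from curve fits of data normalized against the vehicle-only control.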
On to `CC(=O)N(C)CCN(C)c1cncc(Oc2ccc(-c3ccc(N)nc3)c(F)c2F)n1` [Compound 280, N-[2-({6-[4-(6-Amino-pyridin-3-yl)-2,3-difluoro-phenoxy]-pyrazin-2-yl}-methyl-amino)-ethyl]-N-methyl-acetamide], for which the IC50 (in general, the concentration that gives 50% inhibition) is < 0.2 µM.

As for `CC(=O)N(C)CCN(C)c1cncc(Oc2ccc(-c3ccc(C)cn3)cc2)n1` [Compound 93, N-Methyl-N-[2-(methyl-{6-[4-(5-methyl-pyridin-2-yl)-phenoxy]-pyrazin-2-yl}-amino)-ethyl]-acetamide], the IC50 is < 0.2 µM.

For the compound `O=C1CCCCN1CCNc1cncc(Oc2ccc(-c3ccc(CO)nc3)cc2)n1` [Compound 292, 1-(2-{6-[4-(6-Hydroxy-methyl-pyridin-3-yl)-phenoxy]-pyrazin-2-ylamino}-ethyl)-piperidin-2-one], the concentration for half-maximal inhibition (IC50) was < 0.2 µM.

Regarding `CCOc1ccc(-c2ccc(Oc3cncc(N(C)CCN(C)C(C)=O)n3)cc2)c(F)c1F` [Compound 180, N-(2-{[6-(4′-Ethoxy-2′,3′-difluoro-biphenyl-4-yloxy)-pyrazin-2-yl]-methyl-amino}-ethyl)-N-methyl-acetamide], the IC50 lay within 0.2 to 1 µM.

`CC(=O)N(C)CCN(C)c1cncc(Oc2cnn(-c3cccc(C(F)(F)F)c3)c2)n1` [Compound 222, N-Methyl-N-[2-(methyl-{6-[1-(3-trifluoromethyl-phenyl)-1H-pyrazol-4-yloxy]-pyrazin-2-yl}-amino)-ethyl]-acetamide] returned an IC50 of 1 to 10 µM.

The compound `CN(CCC1(O)CCCC1)c1cncc(Oc2ccc(F)cc2)n1` [Compound 283, 1-(2-{[6-(4-Fluoro-phenoxy)-pyrazin-2-yl]-methyl-amino}-ethyl)-cyclopentanol] showed a half-inhibitory concentration (IC50) of 0.2 to 1 µM.

Compound `CCC(=O)N(C)CCN(C)c1cncc(Oc2ccc(F)cc2)n1` [Compound 34, N-(2-{[6-(4-Fluoro-phenoxy)pyrazin-2-yl]-methyl-amino}-ethyl)-N-methyl-propionamide] displayed an IC50 of 1 to 10 µM.

For the compound `CC(=O)N(C)CCN(C)c1cncc(Oc2ccc3c(cnn3C)c2)n1` [Compound 317, N-Methyl-N-(2-{methyl-[6-(1-methyl-1H-indazol-5-yloxy)-pyrazin-2-yl]-amino}-ethyl)-acetamide], the 50% inhibitory concentration (IC50) is < 0.2 µM.

Regarding `CC(=O)N(C)CCN(C)c1cncc(Oc2ccc(-c3nccs3)cc2)n1` [Compound 158, N-Methyl-N-(2-{methyl-[6-(4-thiazol-2-yl-phenoxy)-pyrazin-2-yl]-amino}-ethyl)-acetamide], the IC50 is < 0.2 µM.

As for `CC(=O)N(C)CCN(C)c1cncc(OC2CCCC2)n1` [Compound 43, N-{2-[(6-Cyclo-pentyloxy-pyrazin-2-yl)-methyl-amino]-ethyl}-N-methyl-acetamide], the IC50 lay within 1 to 10 µM.

The compound `CC(=O)N(C)CCN(C)c1cncc(Sc2ccc(F)cc2)n1` [Compound 129, N-(2-{[6-(4-Fluoro-phenyl-sulfanyl)-pyrazin-2-yl]-methyl-amino}-ethyl)-N-methyl-acetamide] showed an IC50 of 0.2 to 1 µM.

`CC(=O)N(C)CCNc1cncc(Oc2ccc(-c3ccncc3)cc2)n1` [Compound 255, N-Methyl-N-{2-[6-(4-pyridin-4-yl-phenoxy)-pyrazin-2-ylamino]-ethyl}-acetamide] displayed an IC50 of 1 to 10 µM.

With `CC(=O)N(C)CCN(C)c1cncc(Oc2ccc(-c3ccc(=O)[nH]n3)cc2)n1` [Compound 151, N-Methyl-N-[2-(methyl-{6-[4-(6-oxo-1,6-dihydro-pyridazin-3-yl)-phenoxy]-pyrazin-2-yl}-amino)-ethyl]-acetamide], the IC50 fell in the range of 0.2 to 1 µM.

As for `CC(=O)N(C)CCN(C)c1cncc(Oc2ccc(-c3ccc(N4CCOCC4)nc3)cc2)n1` [Compound 175, N-Methyl-N-[2-(methyl-{6-[4-(6-morpholin-4-yl-pyridin-3-yl)-phenoxy]-pyrazin-2-yl}-amino)-ethyl]-acetamide], the IC50 is < 0.2 µM.

`CC(=O)N(C)CCNc1cncc(Oc2ccc(-c3cnc(N)cn3)cc2)n1` [Compound 241, N-(2-{6-[4-(5-Amino-pyrazin-2-yl)-phenoxy]-pyrazin-2-ylamino}-ethyl)-N-methyl-acetamide] gave an IC50 of 1 to 10 µM.

In turn, `CCOC(=O)C(C)c1ccc(Oc2cncc(N(C)CCN(C)C(C)=O)n2)cc1` (stereo not shown) [Compound 138, 2-[4-(6-{[2-(Acetyl-methyl-amino)-ethyl]-methyl-amino}-pyrazin-2-yloxy)-phenyl]-propionic acid ethyl ester] registered an IC50 of 0.2 to 1 µM.

For `O=C1OCCN1CCNc1cncc(Oc2ccc(F)cc2)n1` [Compound 277, 3-{2-[6-(4-Fluoro-phenoxy)-pyrazin-2-ylamino]-ethyl}-oxazolidin-2-one], the IC50 was 1 to 10 µM.

`CCN(CCN(C)c1cncc(Oc2ccc(F)cc2)n1)C(C)=O` [Compound 90, N-Ethyl-N-(2-{[6-(4-fluoro-phenoxy)-pyrazin-2-yl]-methyl-amino}-ethyl)-acetamide]: the IC50 was < 0.2 µM.

The compound `CC(=O)N(C)CCN(C)c1cncc(Oc2ccc(F)cc2)n1` [Compound 4, N-(2-{[6-(4-Fluoro-phenoxy)-pyrazin-2-yl]-methyl-amino}-ethyl)-N-methyl-acetamide] returned an IC50 of 0.2 to 1 µM.

With `CC(=O)N(C)CCNc1cncc(Oc2ccc(-c3cncc(S(C)(=O)=O)c3)cc2)n1` [Compound 275, N-(2-{6-[4-(5-Methane-sulfonyl-pyridin-3-yl)-phenoxy]-pyrazin-2-ylamino}-ethyl)-N-methyl-acetamide], the half-inhibitory concentration (IC50) fell in the range of 1 to 10 µM.

For `CC(=O)N(C)CCNc1cncc(Oc2ccc(-c3ccc(C)cn3)cc2)n1` [Compound 19, N-Methyl-N-(2-{6-[4-(5-methyl-pyridin-2-yl)-phenoxy]-pyrazin-2-ylamino}-ethyl)-acetamide], the IC50 was < 0.2 µM.

Consider `CC(=O)N1CCCC(CNc2cncc(Oc3ccc(F)cc3)n2)C1` (stereo not shown) [Compound 39, 1-(3-{[6-(4-Fluoro-phenoxy)-pyrazin-2-ylamino]-methyl}-piperidin-1-yl)-ethanone], for which the IC50 was 1 to 10 µM.

`C=CC(=O)N(C)CCN(C)c1cncc(Oc2ccc(F)cc2)n1` [Compound 290, N-(2-{[6-(4-Fluoro-phenoxy)-pyrazin-2-yl]-methyl-amino}-ethyl)-N-methyl-acrylamide] gave a half-maximal inhibitory concentration (IC50) of 1 to 10 µM.

In turn, `COc1ccc(Oc2cncc(NCC3CCCN(C(C)=O)C3)n2)cc1` (stereo not shown) [Compound 38, 1-(3-{[6-(4-Methoxy-phenoxy)-pyrazin-2-ylamino]-methyl}-piperidin-1-yl)-ethanone] registered a half-inhibitory concentration (IC50) of 1 to 10 µM.

With `CCOC(=O)c1ncoc1-c1ccc(Oc2cncc(N(C)CCN(C)C(C)=O)n2)cc1` [Compound 187, 5-[4-(6-{[2-(Acetyl-methyl-amino)-ethyl]-methyl-amino}-pyrazin-2-yloxy)-phenyl]-oxazole-4-carboxylic acid ethyl ester], the IC50 fell in the range of 0.2 to 1 µM.

With `Cc1ccc(-c2ccc(Oc3cncc(N(C)CCN4CCCCC4=O)n3)cc2)nc1` [Compound 193, 1-[2-(Methyl-{6-[4-(5-methyl-pyridin-2-yl)-phenoxy]-pyrazin-2-yl}-amino)-ethyl]-piperidin-2-one], the IC50 was < 0.2 µM.

Compound `CC(=O)N(C)CCN(C)c1cncc(Oc2ccc3ncccc3c2)n1` [Compound 47, N-Methyl-N-(2-{methyl-[6-(quinolin-6-yloxy)-pyrazin-2-yl]-amino}-ethyl)-acetamide] displayed an IC50 of 1 to 10 µM.

Compound `CC(=O)N(C)CCN(C)c1cncc(Oc2ccc(-c3noc(C)n3)cc2)n1` [Compound 146, N-Methyl-N-[2-(methyl-{6-[4-(5-methyl-[1,2,4]oxadiazol-3-yl)-phenoxy]-pyrazin-2-yl}-amino)-ethyl]-acetamide] yielded an IC50 of 0.2 to 1 µM.

As for `CC(=O)N(C)CCN(C)c1cncc(Oc2ccc(-c3cnc4sc(=O)[nH]c4c3)cc2)n1` [Compound 186, N-Methyl-N-[2-(methyl-{6-[4-(2-oxo-1,2-dihydro-thiazolo[5,4-b]pyridin-6-yl)-phenoxy]-pyrazin-2-yl}-amino)-ethyl]-acetamide], the concentration for half-maximal inhibition (IC50) is < 0.2 µM.

In the case of `CCOC(=O)c1cccc(Oc2cncc(N(C)CCN(C)C(C)=O)n2)c1` [Compound 45, 3-(6-{[2-(Acetyl-methyl-amino)-ethyl]-methyl-amino}-pyrazin-2-yloxy)-benzoic acid ethyl ester], the IC50 was in the range of 1 to 10 µM.

For `CN(CCN(C)c1cncc(Oc2ccc(F)cc2)n1)C(=O)CN` [Compound 284, 2-Amino-N-(2-{[6-(4-fluoro-phenoxy)-pyrazin-2-yl]-methyl-amino}-ethyl)-N-methyl-acetamide], the IC50 was 1 to 10 µM.

In the case of `CC(=O)N(C)CCN(C)c1cncc(Oc2ccc(-c3cc4ccccc4cn3)cc2)n1` [Compound 166, N-(2-{[6-(4-Isoquinolin-3-yl-phenoxy)-pyrazin-2-yl]-methyl-amino}-ethyl)-N-methyl-acetamide], the IC50 lay in the range of 0.2 to 1 µM.

Compound `CC(=O)Nc1ccc(-c2ccc(Oc3cncc(CCCN(C)C(C)=O)n3)cc2)cn1` [Compound 219, N-(3-{6-[4-(6-Acetylamino-pyridin-3-yl)-phenoxy]-pyrazin-2-yl}-propyl)-N-methyl-acetamide] gave an IC50 of 0.2 to 1 µM.

In the case of `Cc1ccc(-c2ccc(Oc3cncc(NCCN4CCCC4=O)n3)cc2)nc1` [Compound 196, 1-(2-{6-[4-(5-Methyl-pyridin-2-yl)-phenoxy]-pyrazin-2-ylamino}-ethyl)-pyrrolidin-2-one], the IC50 is < 0.2 µM.

With `CC(=O)N(C)CCN(C)c1cncc(Oc2ccc(CC#N)cc2)n1` [Compound 142, N-(2-{[6-(4-Cyano-methyl-phenoxy)-pyrazin-2-yl]-methyl-amino}-ethyl)-N-methyl-acetamide], the IC50 was < 0.2 µM.

The compound `CC(=O)N(C)CCN(C)c1cncc(Oc2ccc(-c3ccc(Cl)cc3)c(F)c2F)n1` [Compound 249, N-(2-{[6-(4′-Chloro-2,3-difluoro-biphenyl-4-yloxy)-pyrazin-2-yl]-methyl-amino}-ethyl)-N-methyl-acetamide] had an IC50 of 0.2 to 1 µM.

The compound `COC(=O)N(C)CCN(C)c1cncc(Oc2ccc(OC)cc2)n1` [Compound 78, (2-{[6-(4-Methoxy-phenoxy)-pyrazin-2-yl]-methyl-amino}-ethyl)-methyl-carbamic acid methyl ester] displayed an IC50 of 1 to 10 µM.
